According to ChEMBL document CHEMBL1130091, “Synthesis and cytotoxic evaluation of substituted sulfonyl-N-hydroxyguanidine derivatives as potential antitumor agents” (J Med Chem, 1997):
Converted amounts (≈) assume the structure as drawn.

What was measured:
COLO 205 = experiment: Cytotoxic activity against human tumor COLO 205 cell line; type: functional, cell-based
HepG2 = experiment: Cytotoxic activity against human tumor HepG2 cell line; type: functional, cell-based
KB = experiment: Cytotoxic activity against human tumor KB cell line; type: functional, cell-based
TSGH 8302 = experiment: Cytotoxic activity against human tumor TSGH 8302 cell line; type: functional, cell-based
MOLT-4 [1] = experiment: Cytotoxic Activity against human tumor MOLT-4 cell line; type: functional, cell-based
MOLT-4 [2] = experiment: Cytotoxic Activity against human tumor MOLT-4 cell line with 20 micro g/mL; type: functional
Mus musculus [3] = experiment: Tumor growth inhibition determined at day 20 after tumor transplantation in mice at dose of 300 mg/kg oral administration; type: functional; details: 480 h
Mus musculus [4] = experiment: Antitumor activity against Murine K1735/M2 Melanoma xenograft expressed as body weight change from day 0 to 20 in mice at dose of 300 mg/kg oral administration; type: functional

Row | SMILES | IC50 (COLO 205) [µg/mL] | IC50 (HepG2) [µg/mL] | IC50 (KB) [µg/mL] | IC50 (TSGH 8302) [µg/mL] | IC50 (MOLT-4 [1]) [µg/mL] | Inhibition (MOLT-4 [2]) [%] | inhibition in vivo at 300 mg/kg (Mus musculus [3]) [%] | Body weight change (Mus musculus [4]) [g]
1 | O=[N+]([O-])c1cccc(Cl)c1Oc1ccc(S(=O)(=O)N/C(=N\O)Nc2ccc(Cl)cc2)cc1 | > 100 | > 100 | 83 (≈ 167 µM) | 53 (≈ 107 µM) |  |  |  | 
2 | O=S(=O)(N/C(=N\O)Nc1ccc(Cl)cc1)c1cc2ccccc2o1 | > 200 | > 200 | 67 (≈ 183 µM) |  |  |  |  | 
3 | O=S(=O)(N/C(=N\O)Nc1ccc(Cl)cc1)c1cccc2snnc12 | 87 (≈ 227 µM) | 45 (≈ 117 µM) | 35 (≈ 91.2 µM) | 93 (≈ 242 µM) | 33 (≈ 86 µM) |  |  | 
4 | Cc1c(S(=O)(=O)N/C(=N\O)Nc2ccc(Cl)c(Cl)c2)sc2ccc(Cl)cc12 | > 300 | > 300 | > 300 | > 300 | > 300 |  |  | 
5 | O=S(=O)(NC(=S)Nc1ccc(Cl)cc1)c1cc(S(=O)(=O)c2ccccc2)cs1 | 220 (≈ 465 µM) | 214 (≈ 452 µM) | 196 (≈ 414 µM) | 217 (≈ 459 µM) |  |  |  | 
6 | O=S(=O)(N/C(=N\O)Nc1ccc(Cl)cc1)c1cc(-c2ccsc2)no1 | 52 (≈ 130 µM) | > 300 | 55 (≈ 138 µM) | 149 (≈ 374 µM) | 9 (≈ 22.6 µM) |  |  | 
7 | Cc1c(S(=O)(=O)/N=C(\S)Nc2ccc(Cl)c(Cl)c2)sc2ccc(Cl)cc12 | 57 (≈ 122 µM) | 62 (≈ 133 µM) | 25 (≈ 53.7 µM) | 59 (≈ 127 µM) |  | 65 |  | 
8 | O=S(=O)(N/C(=N\O)Nc1ccc(Cl)cc1)c1ccc(-c2cccs2)cn1 | 74 (≈ 181 µM) | 121 (≈ 296 µM) | 61 (≈ 149 µM) | 208 (≈ 509 µM) | 75 (≈ 183 µM) |  |  | 
9 | CCCCOc1ccc(S(=O)(=O)N/C(=N\O)Nc2ccc(Cl)cc2)cc1 | 49 (≈ 123 µM) | 63 (≈ 158 µM) | 50 (≈ 126 µM) | 37 (≈ 93 µM) | 18 (≈ 45.2 µM) |  |  | 
10 | Cc1ccc(S(=O)(=O)N/C(=N\O)Nc2ccc(Cl)c(Cl)c2)cc1 | 10 (≈ 26.7 µM) | 72 (≈ 192 µM) | 8 (≈ 21.4 µM) | 67 (≈ 179 µM) | 7 (≈ 18.7 µM) |  |  | 
11 | O=S(=O)(NC(=S)Nc1ccc(Cl)cc1)c1cccc2snnc12 | 50 (≈ 130 µM) | 124 (≈ 322 µM) | 63 (≈ 164 µM) | 42 (≈ 109 µM) |  | 55 |  | 
12 | N#Cc1c(Cl)cccc1Oc1ccc(S(=O)(=O)N/C(=N\O)Nc2ccc(Cl)cc2)cc1 | 178 (≈ 373 µM) | > 300 | 39 (≈ 81.7 µM) | 168 (≈ 352 µM) | 95 (≈ 199 µM) |  |  | 
13 | O=S(=O)(NC(=S)Nc1ccc(Cl)cc1)c1ccc(S(=O)(=O)c2ccccc2)s1 | 65 (≈ 137 µM) | 216 (≈ 457 µM) | 66 (≈ 140 µM) | 79 (≈ 167 µM) |  | 59 |  | 
14 | O=S(=O)(N/C(=N\O)Nc1ccc(Cl)cc1)c1cc(C(F)(F)F)cc(C(F)(F)F)c1 | 58 (≈ 126 µM) | 233 (≈ 505 µM) | 57 (≈ 123 µM) | 66 (≈ 143 µM) | 44 (≈ 95.3 µM) |  |  | 
15 | O=[N+]([O-])c1ccc(Oc2c(Cl)cc(S(=O)(=O)N/C(=N\O)Nc3ccc(Cl)cc3)cc2Cl)c(Cl)c1 | 6 (≈ 10.6 µM) | 49 (≈ 86.5 µM) | 7 (≈ 12.4 µM) | 7 (≈ 12.4 µM) | 56 (≈ 98.9 µM) |  | 70.7 | 1.3
16 | O=S(=O)(N/C(=N\O)Nc1ccc(Cl)cc1)c1ccc(S(=O)(=O)c2ccccc2)s1 | 59 (≈ 125 µM) | 92 (≈ 195 µM) | 29 (≈ 61.4 µM) | 41 (≈ 86.9 µM) |  |  |  | 
17 | Cc1ccc(S(=O)(=O)N/C(=N\O)Nc2ccc(Cl)cc2)cc1 | 58 (≈ 171 µM) | 49 (≈ 144 µM) | 46 (≈ 135 µM) | 46 (≈ 135 µM) | 6 (≈ 17.7 µM) |  |  | 
18 | Cc1c(S(=O)(=O)/N=C(\S)Nc2ccc(Cl)cc2)sc2ccc(Cl)cc12 | 52 (≈ 121 µM) | 57 (≈ 132 µM) | 61 (≈ 141 µM) | 55 (≈ 127 µM) |  | 12 |  | 
19 | Cc1ccc(S(=O)(=O)/N=C(\S)Nc2ccc(Cl)c(Cl)c2)cc1 | 45 (≈ 120 µM) | 120 (≈ 320 µM) | 41 (≈ 109 µM) | 55 (≈ 147 µM) |  | 39 |  | 
20 | O=S(=O)(N/C(=N\O)Nc1ccc(Cl)cc1)c1cc(S(=O)(=O)c2ccccc2)cs1 | 45 (≈ 95.3 µM) | 175 (≈ 371 µM) | 10 (≈ 21.2 µM) | 37 (≈ 78.4 µM) | 22 (≈ 46.6 µM) |  |  | 
21 | Cc1ccc(S(=O)(=O)/N=C(\S)Nc2ccc(Cl)cc2)cc1 | 87 (≈ 255 µM) | 232 (≈ 681 µM) | 80 (≈ 235 µM) | 125 (≈ 367 µM) |  | 59 |  | 
22 | O=S(=O)(N/C(=N\O)Nc1ccc(Cl)cc1)c1ccccc1 | 53 (≈ 163 µM) | 54 (≈ 166 µM) | 46 (≈ 141 µM) | 52 (≈ 160 µM) | 7 (≈ 21.5 µM) |  |  | 
23 | Cc1c(S(=O)(=O)N/C(=N\O)Nc2ccc(Cl)cc2)sc2ccc(Cl)cc12 | 60 (≈ 139 µM) | 140 (≈ 325 µM) | 29 (≈ 67.4 µM) | 44 (≈ 102 µM) | 38 (≈ 88.3 µM) |  |  | 
24 | O=S(=O)(N/C(=N\O)Nc1ccc(Cl)cc1)c1cc2ccccc2s1 | 80 (≈ 209 µM) | 176 (≈ 461 µM) | 55 (≈ 144 µM) | 76 (≈ 199 µM) | 57 (≈ 149 µM) |  |  | 
25 | O=S(=O)(NC(=S)Nc1ccc(Cl)cc1)c1ccccc1 | 91 (≈ 278 µM) | > 300 | 66 (≈ 202 µM) | > 300 |  | 63 |  | 
26 | O=[N+]([O-])c1ccc(Oc2c(Cl)cc(S(=O)(=O)N/C(=N\O)Nc3ccc(Cl)cc3)cc2Cl)cc1 | 12 (≈ 22.6 µM) | 22 (≈ 41.4 µM) | 12 (≈ 22.6 µM) | 7 (≈ 13.2 µM) | 55 (≈ 103 µM) |  |  | 
27 | Cc1ccc(S(=O)(=O)NC(=O)Nc2ccc(Cl)cc2)cc1 [LY-181984] | 83 (≈ 256 µM) | > 300 | 72 (≈ 222 µM) | 106 (≈ 326 µM) |  | 33 | 64.7 | -1.2
